Holding throughout (experiment): Calcein AM viability assay, dilution series
What all share (assay type): cell-based, human
Conditions in all cases: 50% inhibition of calcein AM staining; 16-point two-fold dilution; two days

For assay [1], the system named is TIP5/TERT/E6/E7/ST cells. The text has this: (§1) Described here is work carried out to identify compounds with increased potency or activity in the presence of hTERT, LT, ST, E6, E7 or RAS^V12. Although the work described herein made use of hTERT, LT, ST, E6, E7 and RAS^V12 as transforming genes, future studies can make use of a wide variety of cancer-associated alleles using this methodology in order to define the signaling networks that involve many oncogenes and tumor suppressors. Engineered cell lines with these genetic elements were used to screen 23,550 compounds, including 20,000 compounds from a combinatorial library, 1,990 compounds from the National Cancer Institute diversity collection, and 1,540 biologically active known compounds that were selected and purchased by Applicant and formatted into a screenable collection. The primary screen tested (in quadruplicate) the effect of treating tumorigenic BJ-TERT/LT/ST/RAS^V12 engineered tumorigenic cells with each compound for 48 hours at a concentration of 4 μg/mL, corresponding to 10 μM for a compound with a molecular weight of 400, which is the approximate median molecular weight of the libraries. Cell viability was measured using the dye calcein acetoxymethyl ester (calcein AM) (Wang et al., 1993, Hum. Immunol. 37, 264-270), which is a non-fluorescent compound that freely diffuses into cells. In live cells, calcein AM is cleaved by intracellular esterases, forming the anionic fluorescent derivative calcein, which cannot diffuse out of live cells. […] The IC50 value (concentration required to inhibit 50% of the calcein AM signal) was calculated for each compound in each cell line (Table 1). […] Following is a more detailed analysis of these nine compounds.
(§2) Calcein acetoxylmethyl ester (AM) is a cell membrane-permeable, non-fluorescent compound that is cleaved by intracellular esterases to form the anionic, cell-impermeable, fluorescent compound calcein. Viable cells are stained by calcein because of the presence of intracellular esterases and because the intact plasma membrane prevents fluorescent calcein from leaking out of cells (Wang et al., 1993, supra). Cells were seeded in 384-well plates using a Zymark Sciclone ALH, treated with each compound in triplicate at 4 μg/mL in the primary screen for two days, washed with phosphate-buffered saline on a Packard Minitrak with a 384-well washer and incubated for four hours with 0.7 μg/mL calcein (Molecular Probes). Total fluorescence intensity in each well was recorded on a Packard Fusion platereader, and converted to a percent inhibition of signal by subtracting the instrument background and dividing by the average signal obtained when cells were not treated with any compound.
(§3) Compounds to be retested were purchased from manufacturers. Stocks were prepared in DMSO at a concentration of 1 mg/ml in 384-well polypropylene plates with a 16-point, two-fold dilution dose curve of each compound in a column, in duplicates. Column 1-2 and 23-24 were left empty for controls. Daughter retest plates were prepared from stock retest plate by diluting 66.6 fold in DMEM in 384-well deep-deep well plates (4.5 μl transfer into 300 μl). Cells were seeded at a density of 6000 per well in 40 μl, and 20 μl was added from a daughter retest plate. The plates were incubated for two days at 37° C. with 5% CO2.
(§4) Mean RFU (relative fluorescence units) for untreated cells was calculated by averaging columns 1, 2, and 23 (wells with cells but lacking compounds). The calcein background was calculated by averaging column 24 (wells with calcein, but lacking cells). Percentage inhibition of each well was calculated as [1−(RFU−calcein control)/(untreated cell−calcein control)*100]. Compounds causing at least 50% inhibition of calcein staining in the primary screen were tested for selectivity towards BJ-TERT/LT/ST/RAS^V12 engineered tumor cells by testing in BJ primary and BJ-TERT/LT/ST/RAS^V12 cells at a range of concentrations. Selective compounds were retested in all engineered cell lines.

The subject of assay [2] is BJ-TERT/LT/RAS^V12/ST cells.
Excerpt: as §1, §2, §3, §4

Assay [3] deals with TIP5/TERT/E6/E7/ST/RAS^V12 cells.
Excerpt: as §1, §2, §3, §4

The test system of assay [4] is TIP5/TERT/LT cells.
Excerpt: as §1, §2, §3, §4

For assay [5], the system named is TIP5/TERT/E6/E7 cells.
Excerpt: as §1, §2, §3, §4

The test system of assay [6] is TIP5/TERT cells.
Excerpt: as §1, §2, §3, §4

Assay [7] deals with BJ-TERT/LT/ST cells.
Excerpt: as §1, §2, §3, §4

For assay [8], the system named is TIP5/TERT/LT/ST/RAS^V12 cells.
Excerpt: as §1, §2, §3, §4

Assay [9] relates to BJ primary cells.
Excerpt: as §1, §2, §3, §4

The test system of assay [10] is BJ-TERT/LT/ST/RAS^V12 cells. The protocol: Described here is work carried out to identify compounds with increased potency or activity in the presence of hTERT, LT, ST, E6, E7 or RAS^V12. Although the work described herein made use of hTERT, LT, ST, E6, E7 and RAS^V12 as transforming genes, future studies can make use of a wide variety of cancer-associated alleles using this methodology in order to define the signaling networks that involve many oncogenes and tumor suppressors. […] Cell viability was measured using the dye calcein acetoxymethyl ester (calcein AM) (Wang et al., 1993, Hum. Immunol. 37, 264-270), which is a non-fluorescent compound that freely diffuses into cells. […]
Calcein acetoxylmethyl ester (AM) is a cell membrane-permeable, non-fluorescent compound that is cleaved by intracellular esterases to form the anionic, cell-impermeable, fluorescent compound calcein. […] Total fluorescence intensity in each well was recorded on a Packard Fusion platereader, and converted to a percent inhibition of signal by subtracting the instrument background and dividing by the average signal obtained when cells were not treated with any compound. […]
Mean RFU (relative fluorescence units) for untreated cells was calculated by averaging columns 1, 2, and 23 (wells with cells but lacking compounds). The calcein background was calculated by averaging column 24 (wells with calcein, but lacking cells). […]

Structures are written as SMILES. Bounds are passed on as bounds.

With `Cc1c2ccccc2c(CSC(=N)N)c2ccccc12.Cl` [NSC146109], the “IC50 TIP5-TERT/E6E7/ST” value in [1] was 2.5 µg/mL. Further, the “IC50 BJ-TERT/LT/Ras^v12/ST” value in [2] is 2.5 µg/mL. Besides, the “IC50 TIP5-TERT/E6E7/ST/Ras^v12” value in assay [3] was 2.5 µg/mL. Also, the “IC50 TIP5-TERT/LT” value in [4] was above 5 µg/mL. The “IC50 TIP5-TERT/E6E7” value in assay [5] was 2.5 µg/mL. Also, the “IC50 TIP5-TERT” value in assay [6] is above 5 µg/mL. In addition, the “IC50 BJ-TERT/LT/ST” value in [7] was 2.5 µg/mL. In addition, in [8], the “IC50 TIP5-TERT/LT/ST/Ras^v12” value was 2.5 µg/mL. For the same compound, the “IC50 BJ” value in assay [9] is above 5 µg/mL. Besides, the “IC50 BJ-TERT/LT/ST/Ras^v12” value in [10] is 2.5 µg/mL.

The values are drawn from patent publication US20070161644A1, “Erastin analogs and uses thereof” (priority 2005, published 2007).
